Results reported in ChEMBL document CHEMBL4152218, “Novel hydrazide-hydrazone and amide substituted coumarin derivatives: Synthesis, cytotoxicity screening, microarray, radiolabeling and in vivo pharmacokinetic studies” (Eur J Med Chem, 2018).
The source made the active and inactive calls. The calls are words filed in the database; no cut-off is given here.

Experiments:
PANC-1 [1] = experiment: Effect on YY1 gene expression in human PANC1 cells at IC50 after 48 hrs by microarray analysis; type: functional, cell-based
PANC-1 [2] = experiment: Effect on CLDN14 gene expression in human PANC1 cells at IC50 after 48 hrs by microarray analysis; type: functional, cell-based
HepG2 [3] = experiment: Effect on CASP2 gene expression in human HepG2 cells at IC50 after 48 hrs by microarray analysis; type: functional, cell-based
PANC-1 [4] = experiment: Effect on JMJD2B gene expression in human PANC1 cells at IC50 after 48 hrs by microarray analysis; type: functional, cell-based
HepG2 [5] = experiment: Effect on NAV 2 gene expression in human HepG2 cells at IC50 after 48 hrs by microarray analysis; type: functional, cell-based
hTERT-BJ = experiment: Cytotoxicity against hTERT-BJ cells at 25 uM after 48 hrs by resazurin dye-based fluorescence assay relative to control; type: cell-based; conditions: human
PANC-1 [6] = experiment: Effect on FEZ1 gene expression in human PANC1 cells at IC50 after 48 hrs by microarray analysis; type: functional, cell-based
PANC-1 [7] = experiment: Induction of apoptosis in human PANC1 cells assessed as increase in caspase-3/7 activity after 24 hrs by Caspase-Glo 3/7 luminescence assay; type: functional, cell-based
PANC-1 [8] = experiment: Effect on CASP7 gene expression in human PANC1 cells at IC50 after 48 hrs by microarray analysis; type: functional, cell-based
[9] = Inhibition of GST (unknown origin) using CDNB as substrate by spectrophotometric analysis; conditions: human
PANC-1 [10] = experiment: Effect on TOP3A gene expression in human PANC1 cells at IC50 after 48 hrs by microarray analysis; type: functional, cell-based
TERT-RPE1 [11] = experiment: Cytotoxicity against hTERT-RPE1 cells at 12.50 uM after 48 hrs by resazurin dye-based fluorescence assay relative to control; type: cell-based; conditions: human, tert-rpe1, 48 h, 12.5 µM
HepG2 [12] = experiment: Induction of apoptosis in human HepG2 cells assessed as increase in caspase-3/7 activity after 24 hrs by Caspase-Glo 3/7 luminescence assay; type: functional, cell-based
HepG2 [13] = experiment: Effect on TMEM132D gene expression in human HepG2 cells at IC50 after 48 hrs by microarray analysis; type: functional, cell-based
[14] = Selectivity index, ratio of IC50 for hTERT-RPE1 cells to IC50 for human HepG2 cells; type: toxicity; conditions: hTERT-RPE1 cells versus HepG2 cells, read-out: Ratio IC50
HepG2 [15] = experiment: Effect on WDR26 gene expression in human HepG2 cells at IC50 after 48 hrs by microarray analysis; type: functional, cell-based
HepG2 [16] = experiment: Effect on CPB2 gene expression in human HepG2 cells at IC50 after 48 hrs by microarray analysis; type: functional, cell-based
HepG2 [17] = experiment: Effect on GOLPH4 gene expression in human HepG2 cells at IC50 after 48 hrs by microarray analysis; type: functional, cell-based
HepG2 [18] = experiment: Effect on C1orf186 gene expression in human HepG2 cells at IC50 after 48 hrs by microarray analysis; type: functional, cell-based
PANC-1 [19] = experiment: Effect on HEATR3 gene expression in human PANC1 cells at IC50 after 48 hrs by microarray analysis; type: functional, cell-based
PANC-1 [20] = experiment: Effect on ABCB1 gene expression in human PANC1 cells at IC50 after 48 hrs by microarray analysis; type: functional, cell-based
HepG2 [21] = experiment: Effect on GST A1 gene expression in human HepG2 cells at IC50 after 48 hrs by microarray analysis; type: functional, cell-based
HepG2 [22] = experiment: Effect on DKK1 gene expression in human HepG2 cells at IC50 after 48 hrs by microarray analysis; type: functional, cell-based
HepG2 [23] = experiment: Effect on DIDO1 gene expression in human HepG2 cells at IC50 after 48 hrs by microarray analysis; type: functional, cell-based
HepG2 [24] = experiment: Effect on GST M1 gene expression in human HepG2 cells at IC50 after 48 hrs by microarray analysis; type: functional, cell-based
PANC-1 [25] = experiment: Effect on TOP2A gene expression in human PANC1 cells at IC50 after 48 hrs by microarray analysis; type: functional, cell-based
HepG2 [26] = experiment: Effect on CASP7 gene expression in human HepG2 cells at IC50 after 48 hrs by microarray analysis; type: functional, cell-based
HepG2 [27] = experiment: Effect on CYP1A1 gene expression in human HepG2 cells at IC50 after 48 hrs by microarray analysis; type: ADME, cell-based; conditions: hepg2, 48 h
PANC-1 [28] = experiment: Effect on RNF151 gene expression in human PANC1 cells at IC50 after 48 hrs by microarray analysis; type: functional, cell-based
[29] = Selectivity index, ratio of IC50 for hTERT-RPE1 cells to IC50 for human PANC1 cells; type: toxicity; conditions: hTERT-RPE1 cells versus PANC1 cells, read-out: Ratio IC50
[30] = Selectivity index, ratio of IC50 for hTERT-BJ cells to IC50 for human PANC1 cells; type: toxicity; conditions: hTERT-BJ cells versus PANC1 cells, read-out: Ratio IC50
HepG2 [31] = experiment: Effect on PCDH21 gene expression in human HepG2 cells at IC50 after 48 hrs by microarray analysis; type: functional, cell-based
PANC-1 [32] = experiment: Effect on PCNA gene expression in human PANC1 cells at IC50 after 48 hrs by microarray analysis; type: functional, cell-based
HepG2 [33] = experiment: Effect on WNT2B gene expression in human HepG2 cells at IC50 after 48 hrs by microarray analysis; type: functional, cell-based
PANC-1 [34] = experiment: Effect on ITGA2 gene expression in human PANC1 cells at IC50 after 48 hrs by microarray analysis; type: functional, cell-based
PANC-1 [35] = experiment: Effect on ZNF43 gene expression in human PANC1 cells at IC50 after 48 hrs by microarray analysis; type: functional, cell-based
HepG2 [36] = experiment: Effect on GDF15 gene expression in human HepG2 cells at IC50 by SYBR green-dye based qRT-PCR analysis relative to beta-actin; type: functional
PANC-1 [37] = experiment: Effect on HSPE1 gene expression in human PANC1 cells at IC50 after 48 hrs by microarray analysis; type: functional, cell-based
PANC-1 [38] = experiment: Effect on NSBP1 gene expression in human PANC1 cells at IC50 after 48 hrs by microarray analysis; type: functional, cell-based
PANC-1 [39] = experiment: Effect on ZNF148 gene expression in human PANC1 cells at IC50 after 48 hrs by microarray analysis; type: functional, cell-based
[40] = Selectivity index, ratio of IC50 for hTERT-BJ cells to IC50 for human HepG2 cells; type: toxicity; conditions: hTERT-BJ cells versus HepG2 cells, read-out: Ratio IC50
HepG2 [41] = experiment: Effect on TNFRSF 19 gene expression in human HepG2 cells at IC50 after 48 hrs by microarray analysis; type: functional, cell-based
HepG2 [42] = experiment: Effect on PRPF4B gene expression in human HepG2 cells at IC50 after 48 hrs by microarray analysis; type: functional, cell-based
HepG2 [43] = experiment: Effect on GADD45A gene expression in human HepG2 cells at IC50 after 48 hrs by microarray analysis; type: functional, cell-based
HepG2 [44] = experiment: Effect on CXCR3 gene expression in human HepG2 cells at IC50 after 48 hrs by microarray analysis; type: functional, cell-based
HepG2 [45] = experiment: Effect on GADD45G gene expression in human HepG2 cells at IC50 after 48 hrs by microarray analysis; type: functional, cell-based
TERT-RPE1 [46] = experiment: Cytotoxicity against hTERT-RPE1 cells at 50 uM after 48 hrs by resazurin dye-based fluorescence assay relative to control; type: cell-based; conditions: human, tert-rpe1, 48 h

With `O=C(N/N=C/c1cc2ccccc2nc1Cl)c1cc2cc(Br)ccc2oc1=O` the Activity (PANC-1 [1]) was “Active”, the Activity (PANC-1 [2]) was “Active” and the Activity (HepG2 [3]) was “Active”. For the same compound, the Activity (PANC-1 [4]) was “Active”, the Activity (HepG2 [5]) was “Active” and the Activity (hTERT-BJ) was 3.47%. The Activity (PANC-1 [6]) was “Active”, the Activity (PANC-1 [7]) was “Dose-dependent effect” and the Activity (PANC-1 [8]) was “Active”. For the same compound, the “inhibition (INH)” value [9] was “Dose-dependent effect”, the Activity (PANC-1 [10]) was “Active” and the Activity (TERT-RPE1 [11]) was 12.73%. The Activity (HepG2 [12]) was “Dose-dependent effect”, the Activity (HepG2 [13]) was “Active” and the selectivity ratio [14] was over 5.31. The Activity (HepG2 [15]) was “Active”, the Activity (HepG2 [16]) was “Active” and the Activity (HepG2 [17]) was “Active”. The Activity (HepG2 [18]) was “Active”, the Activity (PANC-1 [19]) was “Active” and the Activity (PANC-1 [20]) was “Active”. For the same compound, the Activity (HepG2 [21]) was “Active”, the Activity (HepG2 [22]) was “Active” and the Activity (HepG2 [23]) was “Active”. The Activity (HepG2 [24]) was “Active”, the Activity (PANC-1 [25]) was “Active” and the Activity (HepG2 [26]) was “Active”. For the same compound, the Activity (HepG2 [27]) was “Active”, the Activity (PANC-1 [28]) was “Active” and the selectivity ratio [29] was over 9.18. The selectivity ratio [30] was over 9.18, the Activity (HepG2 [31]) was “Active” and the Activity (PANC-1 [32]) was “Active”. The Activity (HepG2 [33]) was “Active”, the Activity (PANC-1 [34]) was “Active” and the Activity (PANC-1 [35]) was “Active”. The “fold change (FC)” value (HepG2 [36]) was 3.51, the Activity (PANC-1 [37]) was “Active” and the Activity (PANC-1 [38]) was “Active”. The Activity (PANC-1 [39]) was “Active”, the selectivity ratio [40] was over 5.31 and the Activity (HepG2 [41]) was “Active”. For the same compound, the Activity (HepG2 [42]) was “Active”, the Activity (HepG2 [43]) was “Active” and the Activity (HepG2 [44]) was “Active”. The Activity (HepG2 [45]) was “Active” and the Activity (TERT-RPE1 [46]) was 20.18%.
